# Reference: patent publication US3951949A, “Sulfates of hydroxyethyl starch” (Ajinomoto Co., Inc., priority 1973, dated 1976)
# Key:
# pepsin = experiment: Pepsin inhibition activity; assay type: biochemical; conditions: 0.30% aqueous solution (PH=1.8) 1 ml; 20 μg pepsin 1 ml; 1.5% bovine hemoglobin 1 ml; 30°C, 10 min
# Experimental: The pepsin inhibition activity of the products of the invention was tested. The anti-ulcer activity of the compounds of the invention is evident.
# *0.30% Sulfate of hydroxyethyl starch aqueous solution (PH=1.8) 1 ml; 20
# μ g pepsin aqueous solution (PH=1.8) 1 ml; 1.5% Bovine hemoglobin
# hyaluronidase = experiment: Hyaluronidase inhibition activity; assay type: biochemical; conditions: 0.16% in phosphate buffer (PH=7.0) 0.25 ml; hyaluronic acid phosphate buffer (PH=5.3) 0.5 ml; bovine serum albumin buffer (PH=3.75) 5.0 ml; 38°C, 45 minutes
# Experimental: Hyaluronidase inhibition activities of sulfate of hydroxyethyl starch were tested.
# *0.16% Sulfate of hydroxyethyl starch phosphate buffer (PH=7.0) 0.25 ml;
# hyaluronic acid phosphate buffer (PH=5.3) 0.5 ml; Bovine serum albumin
# phosphate buffer (PH=3.75) 5.0 ml 38°C, 45 minutes.
# bovine serum albumin = bovine serum albumin (Bos taurus, UniProt P02769); experiment: Inhibition of heat denaturation of serum protein (turbidity); conditions: 0.5 (W/V) % bovine serum albumin, test substance 3 × 10^-3 M per repeating unit, 1/15M phosphate buffer PH=5.4, 67°C 3 minutes
# Experimental: Inhibition of heat denaturation of serum proteins is widely used for screening potential pharmaceutical agents for anti-inflammatory activity. The test is described in "Inhibition of Heat Denaturation of Serum Protein," Y. Mizushima, Arch. Int. Pharmacodyn.
# In the test, the sodium salt of hydroxyethyl starch sulfate was dissolved in 1/15M phosphate suffer solution (PH=5.4) and to the solution the same phosphate buffer solution containing 1% bovine serum albumin was added in a 1:1 volume ratio. The solution was stirred at 25°C for 20 minutes and then stirred at 67°C for 3 minutes and cooled. The turbidity of the test solutions thus obtained was compared with that of a solution obtained by adding 1/15M phosphate buffer solution containing 1% bovine serum albumin to 1/15M phosphate buffer solution in a 1:1 volume ratio, and the inhibition degree of heat denaturation were calculated.
# Sequence of bovine serum albumin (P02769 25-607): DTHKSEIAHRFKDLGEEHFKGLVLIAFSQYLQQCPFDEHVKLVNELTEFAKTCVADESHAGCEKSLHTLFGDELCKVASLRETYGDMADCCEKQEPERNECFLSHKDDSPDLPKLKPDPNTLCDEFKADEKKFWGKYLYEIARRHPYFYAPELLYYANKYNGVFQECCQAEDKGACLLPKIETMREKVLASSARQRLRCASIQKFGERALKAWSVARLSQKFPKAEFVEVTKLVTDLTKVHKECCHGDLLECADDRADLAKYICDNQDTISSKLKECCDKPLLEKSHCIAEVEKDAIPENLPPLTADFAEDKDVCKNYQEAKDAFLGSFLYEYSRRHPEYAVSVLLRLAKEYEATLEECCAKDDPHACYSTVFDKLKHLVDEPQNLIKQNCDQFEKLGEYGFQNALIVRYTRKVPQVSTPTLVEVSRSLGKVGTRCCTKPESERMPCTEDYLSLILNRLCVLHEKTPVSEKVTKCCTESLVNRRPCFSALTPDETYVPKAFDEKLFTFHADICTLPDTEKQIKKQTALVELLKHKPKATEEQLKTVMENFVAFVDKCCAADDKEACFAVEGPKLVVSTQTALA
Substance,Inhibition Ratio (hyaluronidase) (hyaluronidase) [%],"Inhibition Ratios of Heat Denaturation of Bovine Serum Albumin (bovine serum albumin; 3 min, 3000 µM) [%]",Inhibition Ratios of Heat Denaturation of Bovine Serum Albumin (bovine serum albumin) [%],Pepsin Inhibition Ratio (pepsin) [%]
Sodium Salt of Sulfate of Hydroxyethyl Starch [Example 1.6],–,97.9,–,–
Sodium Salt of Sulfate of Hydroxyethyl Starch [Example 6.3],–,98.1,–,–
Sodium Salt of Sulfate of Hydroxyethyl Starch [Example 8.2],–,98.1,–,–
sodium salts of sulfate of hydroxyethyl starch [Ex. 6],96,–,93.4,83

# Further lines, with some results ahead:
Inhibition Ratio (hyaluronidase) (hyaluronidase) [%],"Inhibition Ratios of Heat Denaturation of Bovine Serum Albumin (bovine serum albumin; 3 min, 3000 µM) [%]",Inhibition Ratios of Heat Denaturation of Bovine Serum Albumin (bovine serum albumin) [%],Substance,Pepsin Inhibition Ratio (pepsin) [%]
10,–,–,Hydroxyethyl Starch [reference compound],1
–,97.6,–,Sodium Salt of Sulfate of Hydroxyethyl Starch [Example 11.1],–
–,98.8,–,Sodium Salt of Sulfate of Hydroxyethyl Starch [Example 14.5],–
